# Test results reported in US20090215625A1, “Combinations of Herbicides and Safeners” (priority 2008, published 2009).
# Where two headings read alike, the source gives them in different places.
# Tests used:
# [1] = test system: Lamium amplexicaule; test: Broadleaf weed control (JSM 08-5), Lamium amplexicaule; assay type: in vivo
# Source text: (§1) Treatments were applied with a CO2 pressurized spray system at a volume of 280 L ha^−1. A four nozzle spray boom utilizing 8002 XR flat fan nozzles (Spraying Systems, Inc, Wheaton, Ill.) on 25 cm spacing and a height of 25 cm was utilized. Spray pressure at the nozzle was 22 PSI and ground speed was 5 km/h. All treatments were applied with 0.25% v/v non-ionic surfactant (X-77 Non-Ionic Surfactant; Helena Chemical Company, Memphis, Tenn.).
# [2] = test system: Stellaria media; test: Broadleaf weed control (JSM 08-5), Stellaria media; assay type: in vivo
# Source text: as §1
# [3] = test system: Geranium carolinianum; test: Broadleaf weed control (JSM 08-5), Geranium carolinianum; assay type: in vivo
# Source text: as §1
# [4] = test system: large crabgrass; test: Large crabgrass control comparison; assay type: in vivo, Digitaria spp.; conditions: 1 to 2 tiller growth stage
# [5] = test system: 'Tifway' bermudagrass; conditions: in vivo
# [6] = test system: 'Meyer' zoysiagrass; conditions: in vivo
# [7] = test system: 'Palmetto' St. Augustinegrass; conditions: in vivo
# [8] = test system: 'Meyer' zoysiagrass; test: Run one visual turfgrass injury, zoysiagrass (JSM08-6); conditions: Rate 0.25 kg ai/ha
# [9] = test system: 'Meyer' zoysiagrass; test: Run two visual turfgrass injury, zoysiagrass (JSM08-15)
# [10] = test system: 'Tifway' bermudagrass; test: Run one visual turfgrass injury, bermudagrass (JSM 08-4); conditions: Rate 0.25 kg ai/ha
# [11] = test system: 'Tifway' bermudagrass; test: Run two visual turfgrass injury, bermudagrass (JSM 08-14)
# [12] = test system: 'Palmetto' St. Augustinegrass; test: Run one visual turfgrass injury, St. Augustinegrass (JSM 08-8); conditions: Rate 0.25 kg ai/ha
# [13] = test system: 'Palmetto' St. Augustinegrass; test: Run two visual turfgrass injury, St. Augustinegrass (JSM08-14)
# [14] = test system: bermudagrass turf; test: Safening comparison of propoxycarbazone and flucarbazone, bermudagrass injury
# [15] = test system: St. Augustinegrass turf; test: Safening comparison of propoxycarbazone and flucarbazone, St. Augustinegrass injury
# [16] = test system: bermudagrass turf; test: Tembotrione safening with flucarbazone, bermudagrass injury; design: species or system Cynodon dacytlon; conditions: in vivo
# Source text: as §1
# Tembotrione is a carotenoid biosynthesis inhibiting herbicide that injures bermudagrass. Table 5 refers to research data evaluating the safening of flucarbazone when combined with tembotrione. Tembotrione applied at 0.023 to 0.092 kg/ha injured bermudagrass turf from 30 to 72%; with the greatest injury occurring at 0.092. All tembotrione plus flucarbazone treatments reduced bermudagrass injury when compared to the equivalent rates of tembotrione alone. Tembotrione (at 0.092 kg/ha) plus flucarbazone at 0.015 or 0.029 kg/ha injured bermudagrass 20; however, flucarbazone at 0.059 reduced bermudagrass injury greater to 8%. It is likely that higher rates of flucarbazone will be needed to provide adequate bermudagrass safening as higher rates of tembotrione are applied.
# [17] = test system: St. Augustinegrass; conditions: in vivo
smiles,measurement,setting,value
COc1c(Cl)ccc(Cl)c1C(=O)O [Dicamba],Weed Control 21 DAT Lamium amplexicaule,[1]; Rate 0.28 kg ai/ha,10%
same,Weed Control 21 DAT Stellaria media,[2]; Rate 0.28 kg ai/ha,65%
same,Weed Control 21 DAT Geranium carolinianum,[3]; Rate 0.28 kg ai/ha,73%
"COc1nn(C(=O)NS(=O)(=O)c2ccccc2OC(F)(F)F)c(=O)n1C [Flucarbazone, 4,5-dihydro-3-methoxy-4-methyl-5-oxo-N-[2-(trifluoromethoxy)phenylsulfonyl]-1H-1,2,4-triazole-1-carboxamide]",Weed Control 21 DAT Lamium amplexicaule,[1]; Rate 0.007 kg ai/ha,3%
same,Weed Control 21 DAT Lamium amplexicaule,[1]; Rate 0.029 kg ai/ha,10%
same,Weed Control 21 DAT Stellaria media,[2]; Rate 0.007 kg ai/ha,35%
same,Weed Control 21 DAT Stellaria media,[2]; Rate 0.029 kg ai/ha,62%
same,Weed Control 21 DAT Geranium carolinianum,[3]; Rate 0.007 kg ai/ha,62%
same,Weed Control 21 DAT Geranium carolinianum,[3]; Rate 0.029 kg ai/ha,55%
same,Large Crabgrass Control 21 DAT,[4]; Rate 0.009 kg ai/ha,17%
same,Large Crabgrass Control 51 DAT,[4]; Rate 0.009 kg ai/ha,0%
same,Visual Turfgrass Injury ~13 DAT Bermudagrass (JSM 08-4),[5],0%
same,Visual Turfgrass Injury ~20 DAT Bermudagrass (JSM 08-4),[5],0%
same,Visual Turfgrass Injury ~13 DAT Zoysiagrass (JSM08-6),[6],0%
same,Visual Turfgrass Injury ~20 DAT Zoysiagrass (JSM08-6),[6],0%
same,Visual Turfgrass Injury ~13 DAT St. Augustinegrass (JSM 08-8),[7],0%
"CS(=O)(=O)c1ccc(C(=O)C2C(=O)CCCC2=O)c([N+](=O)[O-])c1 [Mesotrione, 2-(4-methylsulfonyl-2-nitrobenzoyl)cyclohexane-1,3-dione]",Weed Control 21 DAT Lamium amplexicaule,[1]; Rate 0.28 kg ai/ha,100%
same,Weed Control 21 DAT Stellaria media,[2]; Rate 0.28 kg ai/ha,100%
same,Weed Control 21 DAT Geranium carolinianum,[3]; Rate 0.28 kg ai/ha,20%
same,Large Crabgrass Control 21 DAT,[4]; Rate 0.175 kg ai/ha,95%
same,Large Crabgrass Control 51 DAT,[4]; Rate 0.175 kg ai/ha,78%
same,Visual Turfgrass Injury ~13 DAT Zoysiagrass (JSM08-6),[8],30%
same,Visual Turfgrass Injury ~20 DAT Zoysiagrass (JSM08-6),[8]; rated 22 DAT,0%
same,Visual Turfgrass Injury 7 DAT Zoysiagrass (JSM08-15),[9]; Rate 0.18 kg ai/ha,18%
same,Visual Turfgrass Injury 21 DAT Zoysiagrass (JSM08-15),[9]; Rate 0.18 kg ai/ha,20%
same,Visual Turfgrass Injury 7 DAT Zoysiagrass (JSM08-15),[9]; Rate 0.28 kg ai/ha,22%
same,Visual Turfgrass Injury 21 DAT Zoysiagrass (JSM08-15),[9]; Rate 0.28 kg ai/ha,23%
same,Visual Turfgrass Injury ~13 DAT Bermudagrass (JSM 08-4),[10],12%
same,Visual Turfgrass Injury ~20 DAT Bermudagrass (JSM 08-4),[10],7%
same,Visual Turfgrass Injury 7 DAT Bermudagrass (JSM 08-14),[11]; Rate 0.18 kg ai/ha,32%
same,Visual Turfgrass Injury 21 DAT Bermudagrass (JSM 08-14),[11]; Rate 0.18 kg ai/ha,23%
same,Visual Turfgrass Injury 7 DAT Bermudagrass (JSM 08-14),[11]; Rate 0.28 kg ai/ha,35%
same,Visual Turfgrass Injury 21 DAT Bermudagrass (JSM 08-14),[11]; Rate 0.28 kg ai/ha,27%
same,Visual Turfgrass Injury ~13 DAT St. Augustinegrass (JSM 08-8),[12],5%
same,Visual Turfgrass Injury ~20 DAT St. Augustinegrass (JSM08-8),[12],12%
same,Visual Turfgrass Injury 7 DAT St. Augustinegrass (JSM08-14),[13]; Rate 0.18 kg ai/ha,38%
same,Visual Turfgrass Injury 21 DAT St. Augustinegrass (JSM08-14),[13]; Rate 0.18 kg ai/ha,32%
same,Visual Turfgrass Injury 7 DAT St. Augustinegrass (JSM08-14),[13]; Rate 0.28 kg ai/ha,40%
same,Visual Turfgrass Injury 21 DAT St. Augustinegrass (JSM08-14),[13]; Rate 0.28 kg ai/ha,33%
same,Turfgrass Injury 15 DAT Bermudagrass,[14]; Rate 0.42 kg ai/ha,28%
same,Turfgrass Injury 15 DAT St. Augustinegrass,[15]; Rate 0.42 kg ai/ha,35%
"CCCOc1nn(C(=O)NS(=O)(=O)c2ccccc2C(=O)OC)c(=O)n1C [Propoxycarbazone, methyl 2-[(4,5-dihydro-4-methyl-5-oxo-3-propoxy-1H-1,2,4-triazole-1-carboxamido)sulfonyl]benzoate]",Turfgrass Injury 15 DAT Bermudagrass,[14]; Rate 0.044 kg ai/ha,0%
same,Turfgrass Injury 15 DAT Bermudagrass,[14]; Rate 0.088 kg ai/ha,0%
same,Turfgrass Injury 15 DAT Bermudagrass,[14]; Rate 0.177 kg ai/ha,0%
same,Turfgrass Injury 15 DAT St. Augustinegrass,[15]; Rate 0.044 kg ai/ha,0%
same,Turfgrass Injury 15 DAT St. Augustinegrass,[15]; Rate 0.088 kg ai/ha,0%
same,Turfgrass Injury 15 DAT St. Augustinegrass,[15]; Rate 0.177 kg ai/ha,0%
"CS(=O)(=O)c1ccc(C(=O)C2C(=O)CCCC2=O)c(Cl)c1COCC(F)(F)F [Tembotrione, 2-{2-chloro-4-mesyl-3-[(2,2,2-trifluoroethoxy)methyl]benzoyl}cyclohexane-1,3-dione]",Bermudagrass Injury 23 DAT,[16],0%
same,bermudagrass turf injury,[16],30-72%
same,St. Augustinegrass injury,[17],no injury was observed
